Where two headings read alike, the source gives them in different places.
Experiments:
[1] = target: T1, Lp-PLA2 in rabbit serum (Oryctolagus cuniculus, UniProt G1SE06); assay: In vitro inhibitory activity towards the enzyme Lp-PLA2 in rabbit serum, [3H]PAF substrate; format: biochemical; settings: for inhibition at 0.1 µM: 100 nM
T1 construct: from tissue; host or cells: rabbit serum
T1 sequence (G1SE06 22-423): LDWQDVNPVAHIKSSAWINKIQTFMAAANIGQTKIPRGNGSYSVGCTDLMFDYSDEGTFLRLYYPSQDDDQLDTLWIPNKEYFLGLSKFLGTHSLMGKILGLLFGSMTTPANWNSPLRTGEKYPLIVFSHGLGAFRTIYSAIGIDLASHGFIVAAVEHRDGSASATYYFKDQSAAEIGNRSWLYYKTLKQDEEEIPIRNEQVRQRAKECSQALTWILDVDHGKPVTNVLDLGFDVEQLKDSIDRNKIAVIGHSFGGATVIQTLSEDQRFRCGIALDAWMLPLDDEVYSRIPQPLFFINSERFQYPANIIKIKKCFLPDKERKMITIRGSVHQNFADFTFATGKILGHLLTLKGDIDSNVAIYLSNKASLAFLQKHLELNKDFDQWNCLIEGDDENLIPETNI
Protocol: (§1) The activities of compounds were measured using [^3H] labeled platelet activating factor ([^3H]PAF, Perkinelmer, Lot NET910) as the substrate. The reaction was carried out in a system containing 50 mmol/L HEPES and 150 mmol/L NaCl (pH 7.4) in a total volume of 200 μl. First, 10 μL rabbit serum and 10 μl DMSO solution of the test compound were added to the system and preincubated for 10 min at 37° C. Then 20 nM [^3H]PAF was added as listed in table 1 to start the reaction and incubated for a further 10 min at 37° C. After that, 600 μl of CHCl3/MeOH (2:1) was added and the resulting mixture was vortex mixed and the reaction was stopped. After settled for a while, the mixture was centrifugated at 12000×g for 15 min. The supernatant was transferred to a new tube and 200 μl of CHCl3 was added. The mixture was mixed by vortexing and then settled or centrifugated for 2 min. A 100 μl portion of the supernatant was then collected for radioactivity intensity measurement.
The inhibition rate was determined by the following equation:
Inhibitory rate (%)=1−(DPMcompound tube−DPMblank tube)/(DPMcontrol tube−DPMblank tube)*100%
(Note: DPM is radioactivity intensity unit.)

[2] = target: T2, Lp-PLA2 in human serum (Homo sapiens, UniProt Q13093); assay: In vitro inhibitory activity towards the enzyme Lp-PLA2 in human serum, [3H]PAF substrate; format: biochemical; settings: for inhibition at 0.01 µM: 10 nM; for inhibition at 0.1 µM: 100 nM
T2 construct: from tissue
T2 sequence (Q13093 22-441): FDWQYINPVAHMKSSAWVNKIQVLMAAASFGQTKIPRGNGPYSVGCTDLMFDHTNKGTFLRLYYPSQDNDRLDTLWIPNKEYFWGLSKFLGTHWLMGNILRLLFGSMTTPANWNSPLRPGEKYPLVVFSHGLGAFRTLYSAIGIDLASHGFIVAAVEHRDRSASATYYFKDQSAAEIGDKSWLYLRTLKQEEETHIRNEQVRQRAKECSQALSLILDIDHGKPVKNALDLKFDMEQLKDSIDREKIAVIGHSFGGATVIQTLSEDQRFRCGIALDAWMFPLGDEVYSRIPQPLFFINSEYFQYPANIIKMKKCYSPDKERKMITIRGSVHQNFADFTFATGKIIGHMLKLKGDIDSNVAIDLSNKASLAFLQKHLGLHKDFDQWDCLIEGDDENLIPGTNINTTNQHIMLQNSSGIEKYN
Protocol: as §1, with “mmol/l” for “mmol/L”, “human plasma” for “rabbit serum”, “was” for “was vortex”, “with vortex.” for “and the reaction was stopped.”, “added and mixed by vortexing.” for “added.”, “was” for “was mixed by vortexing and then”

[3] = rabbit serum, read-out: inhibition, %
[4] = human serum, read-out: inhibition, %
[5] = read-out: inhibitory rate towards the rabbit serum derived Lp-PLA2 enzyme
[6] = read-out: inhibitory rate towards the human serum derived Lp-PLA2 enzyme

CN(C)CCNCc1nnc(Cn2c(SCc3ccc(F)cc3)nc(=O)c3c2CCC3)n1Cc1ccc(-c2ccc(C(F)(F)F)cc2)cc1 [Example 105, 1-((5-((2-(dimethylamino)ethylamino)methyl)-4-((4′-(trifluoromethyl)biphenyl-4-yl)methyl)-4H-1,2,4-triazol-3-yl)methyl)-2-(4-fluorobenzylthio)-6,7-dihydro-1H-cyclopenta[d]pyrimidin-4(5H)-one]
inhibition at 0.1 µM [1, 3]: 98% | inhibition at 0.01 µM [2, 4]: 72%

O=c1nc(SCc2ccc(F)cc2)n(Cc2nnc(COCCO)n2Cc2ccc(-c3ccc(C(F)(F)F)cc3)cc2)c2c1CCC2 [Example 123, 2-(4-fluorobenzylthio)-1-((5-((2-hydroxyethoxy)methyl)-4-((4′-(trifluoromethyl)biphenyl-4-yl)methyl)-4H-1,2,4-triazol-3-yl)methyl)-6,7-dihydro-1H-cyclopenta[d]pyrimidin-4(5H)-one]
inhibition at 0.1 µM [1, 3]: 88% | inhibition at 0.01 µM [2, 4]: 76%

O=c1nc(SCc2ccc(F)cc2)n(Cc2nnc(CO)n2Cc2ccc(-c3ccc(C(F)(F)F)cc3)cc2)c2c1CCC2 [Example 72, 2-(4-fluorobenzylthio)-1-((5-(hydroxymethyl)-4-((4′-(trifluoromethyl)biphenyl-4-yl)methyl)-4H-1,2,4-triazol-3-yl)methyl)-6,7-dihydro-1H-cyclopenta[d]pyrimidin-4(5H)-one]
inhibition at 0.1 µM [1, 3]: 73% | inhibition at 0.01 µM [2, 4]: 65% | inhibition at 0.1 µM ([2]; human serum): 91%

O=c1nc(SCc2ccc(F)cc2)n(Cc2nnc(/C=N/N3CCCCC3)n2Cc2ccc(-c3ccc(C(F)(F)F)cc3)cc2)c2c1CCC2 [Example 117, (E)-2-(4-fluorobenzylthio)-1-((5-((piperidin-1-ylimino)methyl)-4-((4′-(trifluoromethyl)biphenyl-4-yl)methyl)-4H-1,2,4-triazol-3-yl)methyl)-6,7-dihydro-1H-cyclopenta[d]pyrimidin-4(5H)-one]
inhibition at 0.1 µM [1, 3]: 80% | inhibition at 0.01 µM [2, 4]: 67% | inhibition at 0.1 µM ([2]; human serum): 92%

CCN1CCC[C@H]1CNCc1nnc(Cn2c(SCc3ccc(F)cc3)nc(=O)c3c2CCC3)n1Cc1ccc(-c2ccc(C(F)(F)F)cc2)cc1 [Example 106, (S)-1-((5-(((1-ethylpyrrolidin-2-yl)methylamino)methyl)-4-((4′-(trifluoromethyl)biphenyl-4-yl)methyl)-4H-1,2,4-triazol-3-yl)methyl)-2-(4-fluorobenzylthio)-6,7-dihydro-1H-cyclopenta[d]pyrimidin-4(5H)-one]
inhibition at 0.1 µM [1, 3]: 96% | inhibition at 0.1 µM [1, 5]: > 90% | inhibition at 0.01 µM [2, 4]: 80% | inhibition at 0.01 µM [2, 6]: > 80%

CCN(CC)CCN(CC(=O)O)Cc1nnc(Cn2c(SCc3ccc(F)cc3)nc(=O)c3c2CCC3)n1Cc1ccc(-c2ccc(C(F)(F)F)cc2)cc1 [Example 135, 2-((2-(diethylamino)ethyl)((3-((2-(4-fluorobenzylthio)-4-oxo-4,5,6,7-tetrahydro-1H-cyclopenta[d]pyrimidin-1-yl)methyl)-4-((4′-(trifluoromethyl)biphenyl-4-yl)methyl)-4H-1,2,4-triazol-5-yl)methyl)amino)acetic acid]
inhibition at 0.1 µM [1, 3]: 83% | inhibition at 0.01 µM [2, 4]: 66%

CCN(CC)Cc1nnc(Cn2c(SCc3ccc(F)cc3)nc(=O)c3c2CCC3)n1Cc1ccc(-c2ccc(C(F)(F)F)cc2)cc1 [Example 79, 1-((5-((diethylamino)methyl)-4-((4′-(trifluoromethyl)biphenyl-4-yl)methyl)-4H-1,2,4-triazol-3-yl)methyl)-2-(4-fluorobenzylthio)-6,7-dihydro-1H-cyclopenta[d]pyrimidin-4(5H)-one]
inhibition at 0.1 µM [1, 3]: 85.3% | inhibition at 0.01 µM [2, 4]: 68% | inhibition at 0.1 µM ([2]; human serum): 93%

CN(CCN1CCCCC1)Cc1onc(Cn2c(SCc3ccc(F)cc3)nc(=O)c3c2CCC3)c1Cc1ccc(-c2ccc(C(F)(F)F)cc2)cc1 [Example 161, 2-(4-fluorobenzylthio)-1-((5-((methyl(2-(piperidin-1-yl)ethyl)amino)methyl)-4-((4′-(trifluoromethyl)biphenyl-4-yl)methyl)isoxazol-3-yl)methyl)-6,7-dihydro-1H-cyclopenta[d]pyrimidin-4(5H)-one]
inhibition at 0.1 µM [1, 3]: 99% | inhibition at 0.1 µM [1, 5]: > 90% | inhibition at 0.01 µM [2, 4]: 100% | inhibition at 0.01 µM [2, 6]: > 80%

CCN(CC)Cc1cnc(Cn2c(SCc3ccc(F)cc3)nc(=O)c3c2CCC3)n1Cc1ccc(-c2ccc(C(F)(F)F)cc2)cc1 [Example 42, 1-((5-((diethylamino)methyl)-1-((4′-(trifluoromethyl)biphenyl-4-yl)methyl)-1H-imidazol-2-yl)methyl)-2-(4-fluorobenzylthio)-6,7-dihydro-1H-cyclopenta[d]pyrimidin-4(5H)-one]
inhibition at 0.1 µM [1, 3]: 88.3% | inhibition at 1 µM ([1]; 1 μM, rabbit serum): 97.7% | inhibition at 0.01 µM [2, 4]: 75% | inhibition at 0.1 µM ([2]; human serum): 92%

O=c1nc(SCc2ccc(F)cc2)n(Cc2ncc(CN3CCN(Cc4ccccc4)CC3)n2Cc2ccc(-c3ccc(C(F)(F)F)cc3)cc2)c2c1CCC2 [Example 45, 1-((5-((4-benzylpiperazin-1-yl)methyl)-1-((4′-(trifluoromethyl)biphenyl-4-yl)methyl)-1H-imidazol-2-yl)methyl)-2-(4-fluorobenzylthio)-6,7-dihydro-1H-cyclopenta[d]pyrimidin-4(5H)-one]
inhibition at 0.1 µM [1, 3]: 87% | inhibition at 0.01 µM [2, 4]: 56% | inhibition at 0.1 µM ([2]; human serum): 90%

CNC(=S)NCc1nnc(Cn2c(SCc3ccc(F)cc3)nc(=O)c3c2CCC3)n1Cc1ccc(-c2ccc(C(F)(F)F)cc2)cc1 [Example 113, 1-((5-((2-(4-fluorobenzylthio)-4-oxo-4,5,6,7-tetrahydro-1H-cyclopenta[d]pyrimidin-1-yl)methyl)-4-((4′-(trifluoromethyl)biphenyl-4-yl)methyl)-4H-1,2,4-triazol-3-yl)methyl)-3-methylthiourea]
inhibition at 0.1 µM [1, 3]: 64% | inhibition at 0.01 µM [2, 4]: 56% | inhibition at 0.1 µM ([2]; human serum): 91%

CCN1CCN(Cc2nnc(Cn3c(SCc4ccc(F)cc4)nc(=O)c4c3CCC4)n2Cc2ccc(-c3ccc(C(F)(F)F)cc3)cc2)CC1 [Example 86, 1-((5-((4-ethylpiperazin-1-yl)methyl)-4-((4′-(trifluoromethyl)biphenyl-4-yl)methyl)-4H-1,2,4-triazol-3-yl)methyl)-2-(4-fluorobenzylthio)-6,7-dihydro-1H-cyclopenta[d]pyrimidin-4(5H)-one]
inhibition at 0.1 µM [1, 3]: 90% | inhibition at 0.1 µM [1, 5]: > 90% | inhibition at 0.01 µM [2, 4]: 82% | inhibition at 0.01 µM [2, 6]: > 80% | inhibition at 0.1 µM ([2]; human serum): 96%

O=c1nc(SCc2ccc(F)cc2)n(Cc2ncc(C[N+]3(Cc4ccc(F)cc4)CCCC3)n2Cc2ccc(-c3ccc(C(F)(F)F)cc3)cc2)c2c1CCC2 [Example 49, 1-(4-fluorobenzyl)-1-(2-((2-(4-fluorobenzylthio)-4-oxo-4,5,6,7-tetrahydro-1H-cyclopenta[d]pyrimidin-1-yl)methyl)-1-((4′-(trifluoromethyl)biphenyl-4-yl)methyl)-1H-imidazol-5-yl)methyl)pyrrolidinium bromide]
inhibition at 0.01 µM [2, 4]: 97% | inhibition at 0.01 µM [2, 6]: > 80% | inhibition at 0.1 µM ([2]; human serum): 98%

Reference: patent US20140171431A1, “AZOLE HETEROCYCLIC COMPOUND, PREPARATION METHOD, PHARMACEUTICAL COMPOSITION AND USE” (priority 2011, published 2014)
